According to patent US20080226719A1, “Combination of Rosiglitazone and Donepezil for Improvement of Cognitive Function” (priority 2005, published 2008):

System: Alzheimer's patients
Assay: CIBIC+ in patients with mild to moderate AD, 24 week placebo-controlled study (Example 2)
Assay type: in vivo, human
Settings: 24 weeks
Description: Analysis for the full intent to treat (ITT) population was performed on 511 subjects who were randomly allocated into one of four specific treatment regimes. Genotyping analysis was performed on 63% (323/511) of the ITT population.
Patient population included Caucasian males and females between 50-85 years of age who had been diagnosed with mild to moderate AD, were not receiving any medications which could adversely prejudice the study (e.g. PPAR-gamma agonists or conventional AD medicaments) or had any other potentially prejudicial ailments (e.g. diabetes or major psychiatric disorders).
Patients received either placebo or one of three dosage levels of extended release rosiglitazone provided once daily (2 mg, 4 mg and 8 mg tablets as described in Example 1). Patients were examined using the cognitive Alzheimer's Disease Assessment Scale (ADAS-cog; for further information see Rosen W G et al. Am. J. Psychiatry. 1984 141:1356-1364) and the Clinician's Interview-Based Impression of Change with caregiver information (CIBIC+; for further information see Knopman D S et al. Neurology 1994 44: 2315-2321); and secondary assessments were performed using: the Disability Assessment for Dementia (DAD, for further information see Gelinas L et al. Am J Occup Ther 1999 53: 471-81) and the Neuropsychiatric Inventory test (NPI, for further information see Cummings et al (1994) Neurology 44, 2308-2314) at the start of the study (baseline) and during the course of the study (after 8, 16 and 24 weeks of treatment).
APOE genotype was determined using the TaqMan PCR-based method of McLeod et al 2001 infra.
All statistics reflect last observed assessment carried forward (LOCF) measurements.
Higher CIBIC+ scores indicate a greater level of decline with scores below 4 denoting clinical improvement and scores above 4 denoting clinical decline.

[1] = Table 13, PGx ITT population, 0 APOE4 copies, 2 mg
[2] = Table 13, PGx ITT population, 0 APOE4 copies, 4 mg
[3] = Table 13, PGx ITT population, 0 APOE4 copies, 8 mg
[4] = Table 13, PGx ITT population, 1 APOE4 copy, 2 mg
[5] = Table 13, PGx ITT population, 1 APOE4 copy, 4 mg
[6] = Table 13, PGx ITT population, 1 APOE4 copy, 8 mg
[7] = Table 13, PGx ITT population, 2 APOE4 copies, 2 mg
[8] = Table 13, PGx ITT population, 2 APOE4 copies, 4 mg
[9] = Table 13, PGx ITT population, 2 APOE4 copies, 8 mg

Structure (SMILES): CN(CCOc1ccc(CC2SC(=O)NC2=O)cc1)c1ccccn1 (stereo not drawn) [Rosi, 5-[4-[2-(N-methyl-N-(2-pyridyl)amino)ethoxy]benzyl]thiazolidine-2,4-dione]
- CIBIC+ Treatment Difference (95% confidence limits) Rosi − Placebo (ITT population, LOCF, 4 mg): −0.16 (−0.43, 0.11)
- CIBIC+ LSMean (SE) (ITT population, LOCF, 8 mg): 3.8 (0.10)
- CIBIC+ Treatment Difference (95% confidence limits) Rosi − Placebo (ITT population, LOCF, 8 mg): −0.22 (−0.49, 0.05)
- CIBIC+ Treatment Difference (90% confidence limits) Rosi − Placebo [1]: −0.49 (−0.89, −0.08)
- model adjusted CIBIC+ LSMean (SE) [1]: 3.47 (0.18)
- CIBIC+ Treatment Difference (90% confidence limits) Rosi − Placebo [2]: −0.19 (−0.60, 0.22)
- model adjusted CIBIC+ LSMean (SE) [2]: 3.76 (0.18)
- CIBIC+ Treatment Difference (90% confidence limits) Rosi − Placebo [3]: −0.19 (−0.61, 0.22)
- model adjusted CIBIC+ LSMean (SE) [3]: 3.76 (0.18)
- CIBIC+ Treatment Difference (90% confidence limits) Rosi − Placebo [4]: 0.59 (0.08, 1.11)
- model adjusted CIBIC+ LSMean (SE) [4]: 4.47 (0.23)
- CIBIC+ Treatment Difference (90% confidence limits) Rosi − Placebo [5]: 0.23 (−0.28, 0.74)
- model adjusted CIBIC+ LSMean (SE) [5]: 4.11 (0.23)
- CIBIC+ Treatment Difference (90% confidence limits) Rosi − Placebo [6]: −0.20 (−0.73, 0.34)
- model adjusted CIBIC+ LSMean (SE) [6]: 3.68 (0.25)
- CIBIC+ Treatment Difference (90% confidence limits) Rosi − Placebo [7]: −0.92 (−2.20, 0.37)
- model adjusted CIBIC+ LSMean (SE) [7]: 3.42 (0.58)
- CIBIC+ Treatment Difference (90% confidence limits) Rosi − Placebo [8]: −0.39 (−1.55, 0.77)
- model adjusted CIBIC+ LSMean (SE) [8]: 3.95 (0.47)
- CIBIC+ Treatment Difference (90% confidence limits) Rosi − Placebo [9]: −0.07 (−1.08, 0.95)
- model adjusted CIBIC+ LSMean (SE) [9]: 4.27 (0.34)
- model adjusted CIBIC+ LSMean (SE) (Table 13A updated analysis with additional subjects, 0 APOE4 copies, 2 mg): 3.51 (0.17)
- model adjusted CIBIC+ LSMean (SE) (Table 13A updated analysis with additional subjects, 0 APOE4 copies, 4 mg): 3.75 (0.17)
- model adjusted CIBIC+ LSMean (SE) (Table 13A updated analysis with additional subjects, 0 APOE4 copies, 8 mg): 3.75 (0.18)
- model adjusted CIBIC+ LSMean (SE) (Table 13A updated analysis with additional subjects, 1 APOE4 copy, 2 mg): 4.32 (0.21)
- model adjusted CIBIC+ LSMean (SE) (Table 13A updated analysis with additional subjects, 1 APOE4 copy, 4 mg): 3.97 (0.22)
- model adjusted CIBIC+ LSMean (SE) (Table 13A updated analysis with additional subjects, 1 APOE4 copy, 8 mg): 3.70 (0.24)
- model adjusted CIBIC+ LSMean (SE) (Table 13A updated analysis with additional subjects, 2 APOE4 copies, 2 mg): 3.46 (0.57)
- model adjusted CIBIC+ LSMean (SE) (Table 13A updated analysis with additional subjects, 2 APOE4 copies, 4 mg): 3.93 (0.47)
- model adjusted CIBIC+ LSMean (SE) (Table 13A updated analysis with additional subjects, 2 APOE4 copies, 8 mg): 4.29 (0.33)
- CIBIC+ Treatment Difference (90% confidence limits) Rosi − Placebo (Table 13A updated analysis, 0 APOE4 copies, 2 mg): −0.46 (−0.85, −0.07)
- CIBIC+ Treatment Difference (90% confidence limits) Rosi − Placebo (Table 13A updated analysis, 0 APOE4 copies, 4 mg): −0.22 (−0.62, 0.18)
- CIBIC+ Treatment Difference (90% confidence limits) Rosi − Placebo (Table 13A updated analysis, 0 APOE4 copies, 8 mg): −0.22 (−0.62, 0.19)
- CIBIC+ Treatment Difference (90% confidence limits) Rosi − Placebo (Table 13A updated analysis, 1 APOE4 copy, 2 mg): 0.39 (−0.09, 0.87)
- CIBIC+ Treatment Difference (90% confidence limits) Rosi − Placebo (Table 13A updated analysis, 1 APOE4 copy, 4 mg): 0.04 (−0.44, 0.53)
- CIBIC+ Treatment Difference (90% confidence limits) Rosi − Placebo (Table 13A updated analysis, 1 APOE4 copy, 8 mg): −0.22 (−0.74, 0.29)
- CIBIC+ Treatment Difference (90% confidence limits) Rosi − Placebo (Table 13A updated analysis, 2 APOE4 copies, 2 mg): −0.91 (−2.19, 0.36)
- CIBIC+ Treatment Difference (90% confidence limits) Rosi − Placebo (Table 13A updated analysis, 2 APOE4 copies, 4 mg): −0.45 (−1.59, 0.70)
- CIBIC+ Treatment Difference (90% confidence limits) Rosi − Placebo (Table 13A updated analysis, 2 APOE4 copies, 8 mg): −0.09 (−1.09, 0.92)
